Source: DBAASP
≈ marks a conversion by molar mass, not a printed value. Where “and” joins values, the source holds several entries; their conditions need not be identical. Identical values can stand only once. One block for each compound: values may come before it.

Experiments:
Assay in all cases: ≥ marks a high value that may be exact or a test limit, other limits are often not marked, values filed in µg/mL are converted to µM
[1] = tested on: Erwinia amylovora PMV 6076
[2] = tested on: Pseudomonas syringae pv. actinidiae Psa3700.1.1
[3] = tested on: Pseudomonas syringae pv. syringae EPS 94
[4] = tested on: Xanthomonas arboricola pv. pruni CFBP 5563
[5] = tested on: Xanthomonas campestris pv. Vesicatoria 2133-2
[6] = tested on: Xanthomonas fragariae Xf349-9A
[7] = tested on: Bacillus subtilis ATCC 6633
[8] = tested on: Enterococcus faecalis ATCC 12953
[9] = tested on: Escherichia coli ATCC 8739
[10] = tested on: Klebsiella pneumoniae ATCC 13885
[11] = tested on: Proteus mirabilis ATCC 25933
[12] = tested on: Pseudomonas aeruginosa ATCC 15442
[13] = tested on: Salmonella enterica subsp. enterica serovar Typhimurium ATCC 14028
[14] = tested on: Staphylococcus aureus ATCC 29213
[15] = tested on: Streptococcus pyogenes ATCC 19615
[16] = tested on: Bacillus subtilis ATCC 11060
Candida albicans = tested on: Candida albicans
[17] = tested on: Enterococcus faecalis ATCC 29212
Escherichia coli 078 = tested on: Escherichia coli 078
[18] = tested on: Escherichia coli CMCC 44102
[19] = tested on: Escherichia coli CVCC 1515
Escherichia coli ER2566 = tested on: Escherichia coli ER2566
Escherichia coli K88 = tested on: Escherichia coli K88
Escherichia coli UB1005 = tested on: Escherichia coli UB1005
Escherichia coli = tested on: Escherichia coli
Listeria monocytogenes = tested on: Listeria monocytogenes
[20] = tested on: Neisseria gonorrhoeae F-62
[21] = tested on: Neisseria gonorrhoeae FA-19
[22] = tested on: Pseudomonas aeruginosa ATCC 10419
[23] = tested on: Pseudomonas aeruginosa ATCC 21625
[24] = tested on: Pseudomonas aeruginosa ATCC 21630
[25] = tested on: Pseudomonas aeruginosa ATCC 27853
[26] = tested on: Salmonella enterica subsp. enterica serovar Pullorum C79-13
[27] = tested on: Salmonella enterica subsp. enterica serovar Typhimurium C77-31
[28] = tested on: Staphylococcus aureus ATCC 25923
[29] = tested on: Staphylococcus epidermidis ATCC 12228
[30] = tested on: Bacillus megaterium KCTC 1096
[31] = tested on: Bacillus subtilis KCTC 1918
[32] = tested on: Escherichia coli KCTC 1682
Proteus vulgaris = tested on: Proteus vulgaris
[33] = tested on: Pseudomonas aeruginosa KCTC 1637
[34] = tested on: Staphylococcus aureus KCTC 1621
[35] = tested on: Candida albicans 08022710
[36] = tested on: Candida albicans 08022821
[37] = tested on: Candida albicans ATCC 2002
Candida albicans SC5314 = tested on: Candida albicans SC5314
[38] = tested on: Pseudomonas aeruginosa 08031014
Pseudomonas aeruginosa = tested on: Pseudomonas aeruginosa
[39] = tested on: Staphylococcus aureus 08A865
[40] = tested on: Staphylococcus aureus 08A875
[41] = tested on: Staphylococcus aureus ATCC 2592

Compound: CC[C@H](C)[C@H](NC(=O)[C@H](CCCCN)NC(=O)[C@H](CCCCN)NC(=O)[C@H](CC(C)C)NC(=O)[C@H](CC(=O)O)NC(=O)[C@@H](NC(=O)[C@@H](N)Cc1ccccc1)C(C)C)C(=O)N[C@@H](C)C(=O)N[C@@H](CC(N)=O)C(=O)N[C@H](C(=O)N[C@H](C(=O)N[C@@H](CC(N)=O)C(=O)N[C@@H](CO)C(=O)N[C@H](C(=O)N[C@@H](Cc1ccccc1)C(=O)NCC(=O)N[C@@H](CCCCN)C(N)=O)[C@@H](C)CC)[C@@H](C)CC)[C@@H](C)CC [FVDLKKIANIINSIFGK]
MIC [1]: ≥ 35.4 µM | MIC [2]: ≥ 50 µM | MIC [3]: ≥ 50 µM | MIC [4]: 2.84 µM (≈ 5.45 µg/mL) | MIC [5]: 4.38 µM (≈ 8.41 µg/mL) | MIC [6]: ≥ 50 µM

Compound: CC[C@H](C)[C@H](N)C(=O)N[C@@H](Cc1ccc(O)cc1)C(=O)N[C@@H](Cc1ccc(O)cc1)C(=O)N1CCC[C@H]1C(=O)N1CCC[C@H]1C(=O)N[C@@H](CC(N)=O)C(=O)N[C@@H](Cc1cnc[nH]1)C(=O)N[C@@H](CC(N)=O)C(=O)N[C@@H](Cc1ccccc1)C(=O)N1CCC[C@H]1C(N)=O [IYYPPNHNFP]
MIC [7]: ≥ 203 µM | MIC [8]: ≥ 101 µM | MIC [9]: ≥ 203 µM | MIC [10]: ≥ 101 µM | MIC [11]: ≥ 101 µM | MIC [12]: ≥ 203 µM | MIC [13]: 203 µM (≈ 256 µg/mL) | MIC [14]: 203 µM (≈ 256 µg/mL) | MIC [15]: ≥ 101 µM

Next, values leading:

MIC [16]: 16.1 µM (≈ 33.1 µg/mL) | MIC (Candida albicans): 4.66 µM (≈ 9.58 µg/mL) | MIC [17]: 32.2 µM (≈ 66.2 µg/mL) | MIC (Escherichia coli 078): 16.1 µM (≈ 33.1 µg/mL) | MIC [18]: 1.02 µM (≈ 2.09 µg/mL) | MIC [19]: 1.99 µM (≈ 4.09 µg/mL) | MIC (Escherichia coli ER2566): 0.485 µM (≈ 0.998 µg/mL) | MIC (Escherichia coli K88): 4.03 µM (≈ 8.28 µg/mL) | MIC (Escherichia coli UB1005): 1.99 µM (≈ 4.09 µg/mL) | MIC (Escherichia coli): 1.12 µM (≈ 2.29 µg/mL) | MIC (Listeria monocytogenes): 1.36 µM (≈ 2.79 µg/mL) | MIC [20]: 0.679 µM (≈ 1.4 µg/mL) | MIC [21]: 0.873 µM (≈ 1.8 µg/mL) | MIC [22]: 4.03 µM (≈ 8.28 µg/mL) | MIC [23]: 8.05 µM (≈ 16.6 µg/mL) | MIC [24]: 8.05 µM (≈ 16.6 µg/mL) | MIC [25]: 4.03 µM (≈ 8.28 µg/mL) | MIC [26]: 1.99 µM (≈ 4.09 µg/mL) | MIC [13]: 1.99 µM (≈ 4.09 µg/mL) | MIC [27]: 4.03 µM (≈ 8.28 µg/mL) | MIC [28]: 8.05 µM (≈ 16.6 µg/mL) | MIC [14]: 4.03 µM (≈ 8.28 µg/mL) | MIC [29]: 32.2 µM (≈ 66.2 µg/mL)
Compound: CC(C)C[C@H](NC(=O)CNC(=O)CNC(=O)CNC(=O)[C@@H](N)CCCNC(=N)N)C(=O)N[C@H]1CSSC[C@@H](C(=O)N[C@H](C(=O)NCC(=O)N[C@@H](CCCNC(=N)N)C(N)=O)C(C)C)NC(=O)[C@H](C(C)C)NC(=O)[C@@H]2CSSC[C@H](NC(=O)[C@H](Cc3ccc(O)cc3)NC1=O)C(=O)N[C@@H](CCCNC(=N)N)C(=O)N[C@@H](CCCNC(=N)N)C(=O)N[C@@H](CCCNC(=N)N)C(=O)N[C@@H](Cc1ccccc1)C(=O)N2 [RGGGLCYCRRRFCVCVGR]

MIC [30]: 3.12 µM (≈ 6.33 µg/mL) | MIC [31]: 1.1 µM (≈ 2.23 µg/mL) | MIC [32]: 8.84 µM (≈ 17.9 µg/mL) | MIC (Proteus vulgaris): 1.56 µM (≈ 3.16 µg/mL) | MIC [33]: 6.25 µM (≈ 12.7 µg/mL) | MIC [34]: 3.12 µM (≈ 6.33 µg/mL)
Compound: CC[C@H](C)[C@H](NC(=O)[C@H](CCCCN)NC(=O)[C@H](CCCCN)NC(=O)[C@H](Cc1ccccc1)NC(=O)[C@H](CC(C)C)NC(=O)[C@H](CCCCN)NC(=O)[C@H](Cc1c[nH]c2ccccc12)NC(=O)[C@@H](N)CCCCN)C(=O)N1CCC[C@H]1C(=O)N[C@@H](CC(C)C)C(=O)N[C@@H](Cc1cnc[nH]1)C(=O)N[C@@H](CC(C)C)C(=O)N[C@@H](C)C(=O)N[C@@H](CCCCN)C(=O)N[C@@H](CCCCN)C(=O)N[C@@H](Cc1ccccc1)C(N)=O [KWKLFKKIPLHLAKKF]

MIC [7]: 29.2 µM and 21.9 µM | MIC [35]: 5.47 µM (≈ 18.7 µg/mL) | MIC [36]: 2.74 µM (≈ 9.37 µg/mL) | MIC [37]: 1.37 µM and 0.686 µM | MIC (Candida albicans SC5314): ≥ 64 µM | MIC (Candida albicans): 1.37 µM (≈ 4.69 µg/mL) | MIC (Escherichia coli): 1.94 µM (≈ 6.63 µg/mL) | MIC [38]: 10.9 µM (≈ 37.5 µg/mL) | MIC [25]: 5.47 µM and > 2.74 µM | MIC (Pseudomonas aeruginosa): 2.74 µM (≈ 9.37 µg/mL) | MIC [39]: 2.74 µM (≈ 9.37 µg/mL) | MIC [40]: 5.47 µM (≈ 18.7 µg/mL) | MIC [41]: 2.74 µM and 1.37 µM | MIC [14]: > 64 µM
Compound: CC[C@H](C)[C@H](NC(=O)[C@H](Cc1cnc[nH]1)NC(=O)[C@H](CO)NC(=O)[C@@H](NC(=O)[C@@H](NC(=O)[C@@H](NC(=O)[C@@H](NC(=O)[C@H](CCCNC(=N)N)NC(=O)[C@H](CC(C)C)NC(=O)[C@H](CCCCN)NC(=O)[C@H](CCC(=O)O)NC(=O)[C@H](CCCCN)NC(=O)[C@H](CC(C)C)NC(=O)[C@H](CCCCN)NC(=O)[C@@H]1CSSC[C@H](NC(=O)[C@H](CCCCN)NC(=O)[C@@H](N)CCCNC(=N)N)C(=O)N[C@@H](CC(N)=O)C(=O)N[C@@H](Cc2ccccc2)C(=O)N[C@@H](CC(C)C)C(=O)N1)[C@@H](C)O)C(C)C)[C@@H](C)CC)[C@@H](C)O)C(=O)N[C@@H](CC(=O)O)C(=O)N[C@@H](CCCCN)C(=O)N[C@H](C(=O)N[C@@H](CC(C)C)C(=O)N[C@@H](CCCNC(=N)N)C(=O)N1CCC[C@H]1C(=O)N[C@@H](CCC(N)=O)C(=O)NCC(=O)O)C(C)C [RKCNFLCKLKEKLRTVITSHIDKVLRPQG]
